Read-outs that look alike come from different tables or passages of the source.
Key:
[1] = molecular target: XIAP-BIR3 (Homo sapiens, UniProt P98170); assay: Biacore SPR solution competition binding assay vs smac7mer peptide, XIAP-BIR3; settings: 100 nM XIAP-BIR3, read-out: XIAP-BIR3 Binding Biacore (Competitive) EC50
From the text: (§1) The compounds described herein above were profiled using a cellular assay (using Panc3.27 tumor cells) and a binding assay to determine the competition between the compounds of the present invention and smac7mer peptide for XIAP-BIR3 and cIAP1-BIR3 binding groove occupancy.
(§2) The present method includes utility of a Surface plasmon resonance (SPR)-based biosensor (Biacore™, GE Healthcare, Uppsala, Sweden) to examine competition between the compounds of the present invention and smac7mer peptide for XIAP-BIR3 and cIAP1-BIR3 binding groove occupancy.
(§3) Biacore™ utilizes the phenomenon of surface plasmon resonance (SPR) to detect and measure binding interactions. In a typical Biacore experiment, one of the interacting molecules is immobilized on a flexible dextran matrix while the interacting partner is flowed over the derivatized surface. A binding interaction results in an increase in mass on the sensor surface and a corresponding direct change in the refractive index of the medium in the vicinity of the sensor surface. Changes in refractive index or signal are recorded in resonance units (R.U.) Signal changes due to association and dissociation of complexes are monitored in a non-invasive manner, continuously and in real-time, the results of which are reported in the form of a sensorgram.
(§4) Biacore™ T100 (GE Healthcare, Uppsala, Sweden) was used to conduct all experiments reported herein. Sensor surface preparation and interaction analyses were performed at 25° C. Buffer and Biacore reagents were purchased from GE Healthcare. Running buffer containing 10 mM Hepes, pH7.4, 150 mM sodium chloride, 1.25 mM Dithiothreitol, 2% Dimethyl sulfoxide and 0.05% polysorbate 20 was utilized throughout all experiments.
(§5) Biotinylated smac7mer peptide was diluted to 10 nM in running buffer and captured onto a sensor surface pre-derivatized with streptavidin (sensor chip SA) towards peptide surface densities in the range 40-100 R.U. Peptide captured surfaces were blocked with 500 μM PEO2-Biotin (Thermo Scientific).
(§6) Interaction analyses were performed by first equilibrating each compound within a six point seven fold compound dilution series in the range 1 μM to 0.06 nM with either 100 nM XIAP-BIR3 or 6 nM cIAP1-BIR3 for at least one hour during instrument start-up procedures. Protein compound mixtures were then injected over reference and smac7mer peptide surfaces in series for 60 seconds at a flow-rate of 60 μL/min. Surface regeneration was performed at the end of each analysis cycle by a 30 second injection of 10 mM Glycine, pH 2.5, 1M Sodium Chloride, 0.05% polysorbate 20. Additionally, control compound samples and control XIAP-BIR3 or cIAP1-BIR3 samples were prepared and run at regular intervals to monitor surface and assay performance.
(§7) Data analyses were carried out using Biacore™ T100 evaluation software v2.0 to validate assay quality. Binding level report points were plotted versus logarithmic compound concentration values and analyzed in Graphpad prism 5 via non-linear regression using a one-site competition model. EC50 values were generated and used as a measure of inhibitor potency.

[2] = molecular target: cIAP1-BIR3 (Homo sapiens, UniProt Q13490); assay: Biacore SPR solution competition binding assay vs smac7mer peptide, cIAP1-BIR3; settings: SPR competition with captured smac7mer peptide; 6 nM cIAP1-BIR3; 25° C.; read-out: CIAP-BIR3 Binding Biacore (Competitive) EC50
Sequence of cIAP1-BIR3 (Q13490 253-363 limits assumed): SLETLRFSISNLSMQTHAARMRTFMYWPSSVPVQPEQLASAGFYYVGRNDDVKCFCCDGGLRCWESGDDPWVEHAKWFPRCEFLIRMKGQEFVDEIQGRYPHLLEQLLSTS
From the text: as §1, §2, §3, §4, §5, §6, §7

[3] = tested on: Panc3.27 tumor cells; assay: Cellular assay: Panc3.27 tumor cell proliferation (Cell Titer Glo); format: cell-based; settings: Panc3.27 cells, 4000 cells per well, 72 hour growth, CTG readout, percent control growth; read-out: PANC proliferation IC50
Experimental: as §1
Cellular Assay—Treatment of Panc3.27 Tumor Cells with Dimeric IAP Antagonists
On day one adherent Panc3.27 cells are plated into two 96-well, clear, flat bottom plates. All wells in row A contain 90 uL of media. All wells in rows B-G contain a total volume of 90 uL per well and 4000 cells per well for Panc3.27 cell lines. Plates are then incubated overnight for 18 hours at 37° C., 5% CO2.
On day two cells are treated with the compounds of formula M-L-M′. Treatments are done in triplicate. The compounds are first serially diluted in DMSO and then added to media giving a final concentration of 0.2% DMSO when added to cells. Cells are treated with 10 uL of serially diluted compounds of formula M-L-M′ at a final concentration of 1000 nM, 200 nM, 40 nM, 8 nM, 1.6 nM, 0.32 nM, 0.06 nM, 0.013 nM, 0.0026 nM, and one untreated well. Plate two is used as a time zero plate.
To measure cell viability 50 uL of Cell Titer Glo (CTG) solution is added to row A, media only and B, cells and media. CTG is purchased from Promega Corporation catalog number G7573. The solution is prepared according to manufacturer's instructions. CTG measures the amount of ATP released from viable cells that is proportional to the number of cells in each well. After incubating for ten minutes with CTG plates are measured on a luminescent reader at 700 nm wavelength. Read time is approximately one second per well for a 96-well plate.
On day five 50 uL of CTG is added to plate one, rows A-G, incubated for 10 minutes at room temperature and read on a luminescent reader. Raw data is adjusted to account for the time zero plate as well as background noise. Triplicate values are averaged and percent control growth is calculated. Percent control growth is calculated using the following logical test: If well read data point (a) is greater than time zero data point (t=0), then 100*[(a)−(t=0)]/[(72 hour total growth)−(t=0)], OR 100*[(a)−(t=0)]/[(t=0)]. Data is represented by line graph with the concentration of compound on the x axis and percent control growth on the y axis.

[4] = SPR competition with captured smac7mer peptide, 25° C.

Sequence of XIAP-BIR3 (P98170 241-356 limits assumed): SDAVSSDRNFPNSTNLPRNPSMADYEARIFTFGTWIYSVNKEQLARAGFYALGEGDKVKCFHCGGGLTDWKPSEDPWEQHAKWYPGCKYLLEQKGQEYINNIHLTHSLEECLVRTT

EC50 [1, 4] | EC50 [2] | IC50 [3] | EC50 ([1]; Tested as the trifluoroacetate salt (footnote 2), SPR competition with smac7mer peptide) | Structure (SMILES)
426 to 495 nM | 1.26 to 1.31 nM | 0.0026 to 0.03 nM |  | CN[C@@H](C)C(=O)N[C@H](C(=O)N1CCC[C@H]1c1cncc(-c2ccc(F)c(C(=O)NCCCCCCCCNC(=O)c3cc(-c4cncc([C@@H]5CCCN5C(=O)[C@@H](NC(=O)[C@H](C)NC)C5CCCCC5)c4)ccc3F)c2)c1)C1CCCCC1 [Example 2G-1, (S,S,S)—N,N′-(octane-1,8-diyl)bis(5-(5-((S)-1-((S)-2-cyclohexyl-2-((S)-2-(methylamino)propanamido)acetyl)pyrrolidin-2-yl)pyridin-3-yl)-2-fluorobenzamide)]
1520 to 1920 nM | 1.35 to 2.17 nM | 0.0026 to 0.15 nM |  | CN[C@@H](C)C(=O)N[C@H](C(=O)N1CCC[C@H]1c1cncc(-c2ccc(F)c(C(=O)NCCCCCCCCCCNC(=O)c3cc(-c4cncc([C@@H]5CCCN5C(=O)[C@@H](NC(=O)[C@H](C)NC)C5CCCCC5)c4)ccc3F)c2)c1)C1CCCCC1 [Example 2D-1]
305 to 306 nM | 1.34 to 1.36 nM | 0.0026 to 0.01 nM |  | CN[C@@H](C)C(=O)N[C@H](C(=O)N1CCC[C@H]1c1cncc(-c2ccc(F)c(C(=O)NCCCCCCNC(=O)c3cc(-c4cncc([C@@H]5CCCN5C(=O)[C@@H](NC(=O)[C@H](C)NC)C5CCCCC5)c4)ccc3F)c2)c1)C1CCCCC1 [Example 2F-1]
318 to 326 nM | 2.79 to 2.8 nM | 0.0026 to 0.4 nM |  | CN[C@@H](C)C(=O)N[C@H](C(=O)N1CCC[C@H]1c1cncc(-c2ccc(F)c(C(=O)NCCCCNC(=O)c3cc(-c4cncc([C@@H]5CCCN5C(=O)[C@@H](NC(=O)[C@H](C)NC)C5CCCCC5)c4)ccc3F)c2)c1)C1CCCCC1 [Example 2I-1]

Continued, molecule first:

Structure (SMILES) | EC50 [1, 4] | EC50 [2] | IC50 [3] | EC50 ([1]; Tested as the trifluoroacetate salt (footnote 2), SPR competition with smac7mer peptide)
CN[C@@H](C)C(=O)N[C@H](C(=O)N1CCC[C@H]1c1cncc(-c2ccc(F)c(C(=O)N3CC4(C3)CN(C(=O)c3cc(-c5cncc([C@@H]6CCCN6C(=O)[C@@H](NC(=O)[C@H](C)NC)C6CCCCC6)c5)ccc3F)C4)c2)c1)C1CCCCC1 [Example 2M-2] | 176 to 177 nM | 3.74 to 3.75 nM | 9.02 to 40.8 nM | 
CN[C@@H](C)C(=O)N[C@H](C(=O)N1CCC[C@H]1c1cncc(-c2ccc(F)c(C(=O)NCc3ccc(-c4ccc(CNC(=O)c5cc(-c6cncc([C@@H]7CCCN7C(=O)[C@@H](NC(=O)[C@H](C)NC)C7CCCCC7)c6)ccc5F)cc4)cc3)c2)c1)C1CCCCC1 [Example 2C-2, (S,S,S)—N,N′-(biphenyl-4,4′-diylbis(methylene))bis(5-(5-((S)-1-((S)-2-cyclohexyl-2-((S)-2-(methylamino)propanamido)acetyl)pyrrolidin-2-yl)pyridin-3-yl)-2-fluorobenzamide)] |  | 0.98 to 0.99 nM | < 0.0026 nM | 2330 to 2390 nM
CN[C@@H](C)C(=O)N[C@H](C(=O)N1CCC[C@H]1c1cncc(-c2ccc(F)c(C(=O)NCCNC(=O)c3cc(-c4cncc([C@@H]5CCCN5C(=O)[C@@H](NC(=O)[C@H](C)NC)C5CCCCC5)c4)ccc3F)c2)c1)C1CCCCC1 [Example 2A-1] | 135 to 136 nM | 1.1 to 1.11 nM | 2.11 to 7.69 nM | 

— US20130266590A1, “DIMERIC IAP INHIBITORS” (NOVARTIS AG, priority 2010, published 2013)
